pIC50: −log10 of the molar value.
How the values were obtained:
[1] = tested on: Osteosarcoma Cells U2OS-EGFP-4A12G; assay: Effect on the proliferation of osteosarcoma cells U2OS-EGFP-4A12G (MTT); type: cell-based; settings: n = 3
Procedure: Cells in the logarithmic growth phase were digested with trypsin, counted with trypan blue, and prepared into a cellular suspension with a density of 1×10^4 cells/mL. The suspension was seeded in a 96-well plate, 200 μL/well, about 2×10^3 cells/well, and pre-cultured for 24 h. […] A concentration of 0 mg/mL was used as a negative control group. After subsequent cultivatation for 0 h, 12 h, 24 h or 48 h, 20 μL MTT solution (5 mg/mL) was added to each well. The cultivation was terminated after another 4 h incubation. The supernatant in each well was sucked out carefully, and 150 μL of dimethyl sulfoxide (DMSO) was added to each well. The plate was shaken for 10 min, so that formazan was dissolved thoroughly. The absorption value (A value) of each well was measured using an enzyme linked immunosorbent detector, at a selected wavelength of 490 nm. The measurement was repeated for 5 times.

[2] = tested on: Ovarian Cancer Cells SKOV3; assay: Effect on the proliferation of ovarian cancer cells SKOV3 (MTT); type: cell-based
Procedure: Cells in the logarithmic growth phase were digested with trypsin, added to a 96-well plate, in a density of 6×10^3 cells/well, and cultured in a 37° C., 5% CO2 incubator. The next day, the plated was transferred to and kept in a 4° C. incubator for 1 h after the adherence of most cells, so as to achieve synchronized growth of the cells. The supernatant was sucked out, and a RPMI 1640 medium containing 10% fetal calf serum (FCS) was added, 200 μL/well. The cells were grouped according to the design of the experiment. The injectable solution of the compound prepared with sterile physiological saline was added to the 96 wells, 200 μL/well, so that the concentrate of the medicament in each well were 1 mg/mL, 2 mg/mL and 5 mg/mL, respectively. A concentration of 0 mg/mL was used as a negative control group. After subsequent cultivation for 24, 48, or 72 h, 20 μL MTT solution (with a concentration of 5 mg/mL) was added to each well, respectively. The plate was shaken gently, returned to the incubator and incubated for another 4 h. Then the supernatant was sucked out completely, and 200 μL of dimethyl sulfoxide was added to each well. The plate was shaken for 5-10 min on a shaker. The absorption (A=580) of each well at a wavelength of 580 nm was measured using a microplate reader. The A=580 value was proportional to the number of live cells.

Structure (SMILES)	melting point	pIC50 [1]	pIC50 ([2]; Homo sapiens, SK-OV-3, n = 3)	pIC50 ([2]; n = 3)
COc1ccc(-c2c(C(=O)c3ccccc3)oc3cc4c(cc23)CCCO4)cc1 [Example 1, 2-benzoyl-3-(4-methoxyphenyl)-6,7-dihydrogen-5H-furo[3,2-g]chromene]	106.3 to 108.5 °C	–	–	–
COc1ccc(C(=O)c2oc3cc4c(cc3c2-c2ccccc2)CCCO4)cc1 [Example 2, 2-(4-methoxybenzoyl)-3-phenyl-6,7-dihydrogen-5H-furo[3,2-g]chromene]	130.3 to 132.5 °C	–	–	–
COc1ccc(-c2c(C(=O)c3ccc(Cl)cc3)oc3cc4c(cc23)CCCO4)cc1 [Example 3, 2-(4-chlorobenzoyl)-3-(4-methoxyphenyl)-6,7-dihydrogen-5H-furo[3,2-g]chromene]	–	4.66	–	–
O=C(c1ccccc1)c1oc2cc3c(cc2c1-c1ccc(O)cc1)CCCO3 [Example 7, 2-benzoyl-3-(4-hydroxyphenyl)-6,7-dihydrogen-5H-furo[3,2-g]chromene]	–	4.86	6.10	–
CCN(CC)CCOc1ccc(-c2c(C(=O)c3ccccc3)oc3cc4c(cc23)CCCO4)cc1 [Example 21, 2-benzoyl-3-[4-(diethylaminoethoxy)phenyl]-6,7-dihydrogen-5H-furo[3,2-g]chromene]	–	4.78	–	4.55
O=C(c1ccc(Cl)cc1)c1oc2cc3c(cc2c1-c1ccc(OCCN2CCCCC2)cc1)CCCO3 [Example 30, 2-(4-chlorobenzoyl)-3-[4-(piperidinoethoxy)phenyl]-6,7-dihydrogen-5H-furo[3,2-g]chromene]	–	4.58	–	4.14
CCN(CC)CCOc1ccc(-c2c(C(=O)c3ccc(Cl)cc3)oc3cc4c(cc23)CCCO4)cc1 [Example 31, 2-(4-chlorobenzoyl)-3-[4-(diethylaminoethoxy)phenyl]-6,7-dihydrogen-5H-furo[3,2-g]chromene]	–	4.44	5.07	–
CCN(CC)CCOc1ccc(-c2c(C(=O)c3ccc(C)cc3)oc3cc4c(cc23)CCCO4)cc1 [Example 35, 2-(4-methylbenzoyl)-3-[4-(diethylaminoethoxy)phenyl]-6,7-dihydrogen-5H-furo[3,2-g]chromene]	–	5.24	4.53	–
Cc1ccc(C(=O)c2oc3cc4c(cc3c2-c2ccc(OCCN(C)C)cc2)CCCO4)cc1 [Example 36, 2-(4-methylbenzoyl)-3-[4-(dimethylaminoethoxy)phenyl]-6,7-dihydrogen-5H-furo[3,2-g]chromene]	–	5.11	4.99	–
O=C(c1ccc(Br)cc1)c1oc2cc3c(cc2c1-c1ccc(OCCN2CCOCC2)cc1)CCCO3 [Example 41, 2-(4-bromobenzoyl)-3-[4-(morpholinoethoxy)phenyl]-6,7-dihydrogen-5H-furo[3,2-g]chromene]	–	5.30	4.37	–

Now from value to molecule:

melting point	pIC50 [1]	pIC50 ([2]; Homo sapiens, SK-OV-3, n = 3)	pIC50 ([2]; n = 3)	Structure (SMILES)
–	4.88	4.48	–	O=C(c1ccc(Br)cc1)c1oc2cc3c(cc2c1-c1ccc(OCCN2CCCCC2)cc1)CCCO3 [Example 42, 2-(4-bromobenzoyl)-3-[4-(piperidinoethoxy)phenyl]-6,7-dihydrogen-5H-furo[3,2-g]chromene]
–	4.81	4.72	–	CN(C)CCOc1ccc(-c2c(C(=O)c3ccc(Br)cc3)oc3cc4c(cc23)CCCO4)cc1 [Example 44, 2-(4-bromobenzoyl)-3-[4-(dimethylaminoethoxy)phenyl]-6,7-dihydrogen-5H-furo[3,2-g]chromene]
–	5.29	4.84	–	COc1ccc(-c2c(C(=O)c3ccc(OCCN4CCCCC4)cc3)oc3cc4c(cc23)CCCO4)cc1 [Example 48, 2-[4-(piperidinoethoxy)benzoyl]-3-(4-methoxyphenyl)-6,7-dihydrogen-5H-furo[3,2-g]chromene]
–	5.26	4.84	–	CCN(CC)CCOc1ccc(C(=O)c2oc3cc4c(cc3c2-c2ccc(OC)cc2)CCCO4)cc1 [Example 50, 2-[4-(diethylaminoethoxy)benzoyl]-3-(4-methoxyphenyl)-6,7-dihydrogen-5H-furo[3,2-g]chromene]
–	4.97	–	4.87	O=C(c1ccc(OCCN2CCCCC2)cc1)c1oc2cc3c(cc2c1-c1ccc(O)cc1)CCCO3 [Example 55, 2-[4-(piperidinoethoxy)benzoyl]-3-(4-hydroxyphenyl)-6,7-dihydrogen-5H-furo[3,2-g]chromene]

Source: patent US8877949B2, “Furo[3,2-g]chromene compounds and uses thereof” (Shenyang Pharmaceutical University, priority 2010, dated 2014)
